Laboratory results as given in patent US20250206732A1, “COMPOUNDS AND METHODS FOR THE TARGETED DEGRADATION OF KRAS” (Arvinas Operations, Inc., priority 2022, published 2025).

Biological target: T1, AsPC-1 HiBiT-KRASG12D (Homo sapiens, UniProt P01116, G12D)
T1 construct: insert the HiBiT tag onto the N-terminus of one or more of the endogenous KRAS alleles; endogenous in cells; host or cells: AsPC-1 (ATCC CRL-1682), CRISPR-Cas9 knock-in clone, one tagged allele
Assay: HiBiT degradation assay (G12D), AsPC-1 HiBiT-KRASG12D cells
Type: cell-based
Details: 24 hours treatment; for Dmax: ASPC1, AsPC-1 HiBiT-KRASG12D cells, maximum degradation observed; for DC50: AsPC-1 HiBiT-KRASG12D cells, HiBiT luminescence
Procedure, shortened: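 In this degradation format, an engineered AsPC-1 clone with HiBiT fused to the KRAS N-terminus is exposed to compounds for 24 hours, after which remaining tagged protein is quantified by lytic HiBiT luminescence.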

T1 sequence (P01116 1-188 isoform P01116-2 G12D): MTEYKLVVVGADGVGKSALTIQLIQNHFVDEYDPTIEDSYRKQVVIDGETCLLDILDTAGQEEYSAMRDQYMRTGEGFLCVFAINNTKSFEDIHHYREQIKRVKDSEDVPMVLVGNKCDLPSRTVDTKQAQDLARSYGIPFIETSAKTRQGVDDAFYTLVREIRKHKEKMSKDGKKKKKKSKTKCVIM

SMILES | Dmax | DC50
CCc1cccc2cc(O)cc(-c3ncc4c(N5CC6CCC(C5)N6)nc(OC[C@]56CCCN5[C@H](COC(=O)N5CC(Oc7cc([C@H](C(=O)N8C[C@H](O)C[C@H]8C(=O)N[C@@H](C)c8ccc(-c9scnc9C)cc8)C(C)C)on7)C5)CC6)nc4c3F)c12 [Compound 128, [(3S,7aR)-7a-{[(4-{3,8-diazabicyclo[3.2.1]octan-3-yl}-7-(8-ethyl-3-hydroxynaphthalen-1-yl)-8-fluoropyrido[4,3-d]pyrimidin-2-yl)oxy]methyl}-hexahydro-1H-pyrrolizin-3-yl]methyl 3-({5-[(2R)-1-[(2S,4R)-4-hydroxy-2-{[(1S)-1-[4-(4-methyl-1,3-thiazol-5-yl)phenyl]ethyl]carbamoyl}pyrrolidin-1-yl]-3-methyl-1-oxobutan-2-yl]-1,2-oxazol-3-yl}oxy)azetidine-1-carboxylate] | 80 to 100% | < 0.6 µM
CCc1cccc2cc(O)cc(-c3ncc4c(N5CC6CCC(C5)N6)nc(OCCN5CCC(F)(CN6CCN(c7cc([C@@H](C(=O)N8C[C@H](O)C[C@H]8C(=O)N[C@@H](C)c8ccc(-c9scnc9C)cc8)C(C)C)on7)C[C@@H]6C)CC5)nc4c3F)c12 [Compound 196, (2S,4R)-1-[(2S)-2-{3-[(3S)-4-[(1-{2-[(4-{3,8-diazabicyclo[3.2.1]octan-3-yl}-7-(8-ethyl-3-hydroxynaphthalen-1-yl)-8-fluoropyrido[4,3-d]pyrimidin-2-yl)oxy]ethyl}-4-fluoropiperidin-4-yl)methyl]-3-methylpiperazin-1-yl]-1,2-oxazol-5-yl}-3-methylbutanoyl]-4-hydroxy-N-[(1S)-1-[4-(4-methyl-1,3-thiazol-5-yl)phenyl]ethyl]pyrrolidine-2-carboxamide] | 20 to 60% | 0.6 to 1 µM
CCc1cccc2cc(O)cc(-c3ncc4c(N5CC6CCC(C5)N6)nc(OC[C@@]56CCCN5[C@@H](COC(=O)N5CCN(c7cc([C@H](C(=O)N8C[C@H](O)C[C@H]8C(=O)N[C@@H](C)c8ccc(-c9scnc9C)cc8)C(C)C)on7)CC5)CC6)nc4c3F)c12 [Compound 106, [(3R,7aS)-7a-{[(4-{3,8-diazabicyclo[3.2.1]octan-3-yl}-7-(8-ethyl-3-hydroxynaphthalen-1-yl)-8-fluoropyrido[4,3-d]pyrimidin-2-yl)oxy]methyl}-hexahydro-1H-pyrrolizin-3-yl]methyl 4-{5-[(2R)-1-[(2S,4R)-4-hydroxy-2-{[(1S)-1-[4-(4-methyl-1,3-thiazol-5-yl)phenyl]ethyl]carbamoyl}pyrrolidin-1-yl]-3-methyl-1-oxobutan-2-yl]-1,2-oxazol-3-yl}piperazine-1-carboxylate] | 80 to 100% | < 0.6 µM
C#Cc1c(F)ccc2cc(O)cc(-c3ncc4c(N5CC6CCC(C5)N6)nc(OC[C@@]56CCCN5[C@H](COc5cc([C@@H](C(=O)N7C[C@H](O)C[C@H]7C(=O)N[C@@H](C)c7ccc(-c8scnc8C)cc7)C(C)C)on5)CC6)nc4c3F)c12 [Compound 315, (2S,4R)-1-[(2S)-2-[3-[[(3S,8S)-8-[[4-(3,8-diazabicyclo[3.2.1]octan-3-yl)-7-(8-ethynyl-7-fluoro-3-hydroxy-1-naphthyl)-8-fluoro-pyrido[4,3-d]pyrimidin-2-yl]oxymethyl]-1,2,3,5,6,7-hexahydropyrrolizin-3-yl]methoxy]isoxazol-5-yl]-3-methyl-butanoyl]-4-hydroxy-N-[(1S)-1-[4-(4-methylthiazol-5-yl)phenyl]ethyl]pyrrolidine-2-carboxamide] |  | > 3 µM
CCc1cccc2cc(O)cc(-c3ncc4c(N5CCCCCC5)nc(OC[C@]56CCCN5[C@H](COC(=O)N5CC7(C5)CN(c5cc([C@@H](C(=O)N8C[C@H](O)C[C@H]8C(=O)N[C@@H](C)c8ccc(-c9scnc9C)cc8)C(C)C)on5)C7)CC6)nc4c3F)c12 [Compound 284, [(3S,8R)-8-[[4-(azepan-1-yl)-7-(8-ethyl-3-hydroxy-1-naphthyl)-8-fluoro-pyrido[4,3-d]pyrimidin-2-yl]oxymethyl]-1,2,3,5,6,7-hexahydropyrrolizin-3-yl]methyl 6-[5-[(1S)-1-[(2S,4R)-4-hydroxy-2-[[(1S)-1-[4-(4-methylthiazol-5-yl)phenyl]ethyl]carbamoyl]pyrrolidine-1-carbonyl]-2-methyl-propyl]isoxazol-3-yl]-2,6-diazaspiro[3.3]heptane-2-carboxylate] |  | > 3 µM
C#Cc1c(F)ccc2cccc(-c3ncc4c(N5CC6CCC(C5)N6)nc(OC[C@]56CCCN5[C@@H](COC(=O)N5CCN(c7cc([C@H](C(=O)N8C[C@H](O)C[C@H]8C(=O)N[C@@H](C)c8ccc(-c9scnc9C)cc8)C(C)C)on7)CC5)CC6)nc4c3F)c12 (single isomer, unassigned) [Compound 333] | 80 to 100% | < 0.6 µM
CCc1cccc2cccc(-c3ncc4c(N5CC6CCC(C5)N6)nc(OC[C@@H]5CC[C@@H](COC(=O)N6CCN(c7cc([C@H](C(=O)N8C[C@H](O)C[C@H]8C(=O)N[C@@H](C)c8ccc(-c9scnc9C)cc8)C(C)C)on7)[C@H](C)C6)N5C)nc4c3F)c12 [Compound 222, [(2S,5S)-5-{[(4-{3,8-diazabicyclo[3.2.1]octan-3-yl}-7-(8-ethylnaphthalen-1-yl)-8-fluoropyrido[4,3-d]pyrimidin-2-yl)oxy]methyl}-1-methylpyrrolidin-2-yl]methyl (3R)-4-{5-[(2R)-1-[(2S,4R)-4-hydroxy-2-{[(1S)-1-[4-(4-methyl-1,3-thiazol-5-yl)phenyl]ethyl]carbamoyl}pyrrolidin-1-yl]-3-methyl-1-oxobutan-2-yl]-1,2-oxazol-3-yl}-3-methylpiperazine-1-carboxylate] | 60 to 80% | < 0.6 µM
CCc1cccc2cc(O)cc(-c3ncc4c(N5C[C@H]6CC[C@@H](C5)N6)nc(OC[C@@H]5CC[C@@H](COC(=O)N6CC7(C6)CN(c6cc([C@H](C(=O)N8C[C@H](O)C[C@H]8C(=O)N[C@@H](C)c8ccc(-c9scnc9C)cc8)C(C)C)on6)C7)N5C)nc4c3F)c12 [Compound 256, ((2S,5S)-5-(((4-((1R,5S)-3,8-diazabicyclo[3.2.1]octan-3-yl)-7-(8-ethyl-3-hydroxynaphthalen-1-yl)-8-fluoropyrido[4,3-d]pyrimidin-2-yl)oxy)methyl)-1-methylpyrrolidin-2-yl)methyl 6-(5-((R)-1-((2S,4R)-4-hydroxy-2-(((S)-1-(4-(4-methylthiazol-5-yl)phenyl)ethyl)carbamoyl)pyrrolidin-1-yl)-3-methyl-1-oxobutan-2-yl)isoxazol-3-yl)-2,6-diazaspiro[3.3]heptane-2-carboxylate] | 80 to 100% | < 0.6 µM
C#Cc1c(F)ccc2cccc(-c3ncc4c(N5CC6CCC(C5)N6)nc(OC[C@@]56CCCN5[C@@H](COC(=O)N5CCN(c7cc([C@H](C(=O)N8C[C@H](O)C[C@H]8C(=O)N[C@@H](C)c8ccc(-c9scnc9C)cc8)C(C)C)on7)CC5)CC6)nc4c3F)c12 (relative stereo) [Compound 334, [(3R,8S)-8-[[4-(3,8-diazabicyclo[3.2.1]octan-3-yl)-7-(8-ethynyl-7-fluoro-1-naphthyl)-8-fluoro-pyrido[4,3-d]pyrimidin-2-yl]oxymethyl]-1,2,3,5,6,7-hexahydropyrrolizin-3-yl]methyl 4-[5-[(1R)-1-[(2S,4R)-4-hydroxy-2-[[(1S)-1-[4-(4-methylthiazol-5-yl)phenyl]ethyl]carbamoyl]pyrrolidine-1-carbonyl]-2-methyl-propyl]isoxazol-3-yl]piperazine-1-carboxylate] | 60 to 80% | < 0.6 µM
CCc1cccc2cc(O)cc(-c3ncc4c(N5CC6CCC(C5)N6)nc(OC[C@]56CCCN5[C@H](COC(=O)N5C[C@H](C)N(c7cc([C@H](C(=O)N8C[C@H](O)C[C@H]8C(=O)N[C@@H](C)c8ccc(-c9scnc9C)cc8)C(C)C)on7)C[C@H]5C)CC6)nc4c3F)c12 [Compound 296, [(3S,8R)-8-[[4-(3,8-diazabicyclo[3.2.1]octan-3-yl)-7-(8-ethyl-3-hydroxy-1-naphthyl)-8-fluoro-pyrido[4,3-d]pyrimidin-2-yl]oxymethyl]-1,2,3,5,6,7-hexahydropyrrolizin-3-yl]methyl (2R,5S)-4-[5-[(1R)-1-[(2S,4R)-4-hydroxy-2-[[(1S)-1-[4-(4-methylthiazol-5-yl)phenyl]ethyl]carbamoyl]pyrrolidine-1-carbonyl]-2-methyl-propyl]isoxazol-3-yl]-2,5-dimethyl-piperazine-1-carboxylate] | 80 to 100% | < 0.6 µM
CCc1cccc2cc(O)cc(-c3ncc4c(N5CC6CCC(C5)N6)nc(OC[C@]56CCCN5[C@H](COC(=O)N5CCN(c7cc([C@H](C(=O)N8C[C@H](O)C[C@H]8C(=O)N[C@@H](C)c8ccc(-c9scnc9C)cc8)C(C)C)on7)[C@@H](C)C5)CC6)nc4c3F)c12 [Compound 123, [(3S,7aR)-7a-{[(4-{3,8-diazabicyclo[3.2.1]octan-3-yl}-7-(8-ethyl-3-hydroxynaphthalen-1-yl)-8-fluoropyrido[4,3-d]pyrimidin-2-yl)oxy]methyl}-hexahydro-1H-pyrrolizin-3-yl]methyl (3S)-4-{5-[(2R)-1-[(2S,4R)-4-hydroxy-2-{[(1S)-1-[4-(4-methyl-1,3-thiazol-5-yl)phenyl]ethyl]carbamoyl}pyrrolidin-1-yl]-3-methyl-1-oxobutan-2-yl]-1,2-oxazol-3-yl}-3-methylpiperazine-1-carboxylate] | 80 to 100% | < 0.6 µM
CCc1cccc2cc(O)cc(-c3ncc4c(N5CC6CCC(C5)N6)nc(OCCN5CCC6(CC5)CC(Oc5cc([C@H](C(=O)N7C[C@H](O)C[C@H]7C(=O)N[C@@H](C)c7ccc(-c8scnc8C)cc7)C(C)C)on5)C6)nc4c3F)c12 [Compound 231] | 80 to 100% | < 0.6 µM
CCc1cccc2cc(O)cc(-c3ncc4c(N5CC6CCC(C5)N6)nc(OCCN5CCC(C)(CCOc6cc([C@@H](C(=O)N7C[C@H](O)C[C@H]7C(=O)N[C@@H](C)c7ccc(-c8scnc8C)cc7)C(C)C)on6)CC5)nc4c3F)c12 [Compound 238] | 80 to 100% | < 0.6 µM
